In patent US10259810B2, “N-sulfonylated pyrazolo[3,4-b]pyridin-6-carboxamides and method of use” (AbbVie S.à.r.l., priority 2015, dated 2019):

Tests used:
[1] = target: T1, ΔF508-CFTR (Homo sapiens, UniProt P13569, DEL508-508); test: CFTR cell surface levels using HRP-tagged ΔF508-CFTR expressing CFBE cells, in the presence of a co-corrector; format: cell-based; details: HRP-tagged ΔF508-CFTR CFBE cells, in the presence of 3 μM co-corrector; for EC50: read-out: EC50
T1 construct: host or cells: CFBE41o-, doxycycline-inducible
Procedure, shortened: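 Chemiluminescent read-out of surface HRP (15 min, dark) after PBS washes. Activity is normalized as 100×(sample−DMSO)/(3 μM co-corrector alone−DMSO).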

[2] = target: T1, ΔF508-CFTR; test: CFTR cell surface levels using HRP-tagged ΔF508-CFTR expressing CFBE cells, intrinsic corrector capacity; format: cell-based; design: % Activation: concentration or dose not given beside the values; details: HRP-tagged ΔF508-CFTR expressing CFBE41o- cells, compound alone (intrinsic corrector capacity), 20 hours at 33° C.; for EC50: read-out: EC50
Procedure, shortened: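 Surface ΔF508-CFTR was measured as HRP chemiluminescence from an extracellular-loop-4 tag, expressed as percent activity between DMSO and a […] corrector control.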

T1 sequence (P13569 with tags, fused parts or gaps DEL508-508): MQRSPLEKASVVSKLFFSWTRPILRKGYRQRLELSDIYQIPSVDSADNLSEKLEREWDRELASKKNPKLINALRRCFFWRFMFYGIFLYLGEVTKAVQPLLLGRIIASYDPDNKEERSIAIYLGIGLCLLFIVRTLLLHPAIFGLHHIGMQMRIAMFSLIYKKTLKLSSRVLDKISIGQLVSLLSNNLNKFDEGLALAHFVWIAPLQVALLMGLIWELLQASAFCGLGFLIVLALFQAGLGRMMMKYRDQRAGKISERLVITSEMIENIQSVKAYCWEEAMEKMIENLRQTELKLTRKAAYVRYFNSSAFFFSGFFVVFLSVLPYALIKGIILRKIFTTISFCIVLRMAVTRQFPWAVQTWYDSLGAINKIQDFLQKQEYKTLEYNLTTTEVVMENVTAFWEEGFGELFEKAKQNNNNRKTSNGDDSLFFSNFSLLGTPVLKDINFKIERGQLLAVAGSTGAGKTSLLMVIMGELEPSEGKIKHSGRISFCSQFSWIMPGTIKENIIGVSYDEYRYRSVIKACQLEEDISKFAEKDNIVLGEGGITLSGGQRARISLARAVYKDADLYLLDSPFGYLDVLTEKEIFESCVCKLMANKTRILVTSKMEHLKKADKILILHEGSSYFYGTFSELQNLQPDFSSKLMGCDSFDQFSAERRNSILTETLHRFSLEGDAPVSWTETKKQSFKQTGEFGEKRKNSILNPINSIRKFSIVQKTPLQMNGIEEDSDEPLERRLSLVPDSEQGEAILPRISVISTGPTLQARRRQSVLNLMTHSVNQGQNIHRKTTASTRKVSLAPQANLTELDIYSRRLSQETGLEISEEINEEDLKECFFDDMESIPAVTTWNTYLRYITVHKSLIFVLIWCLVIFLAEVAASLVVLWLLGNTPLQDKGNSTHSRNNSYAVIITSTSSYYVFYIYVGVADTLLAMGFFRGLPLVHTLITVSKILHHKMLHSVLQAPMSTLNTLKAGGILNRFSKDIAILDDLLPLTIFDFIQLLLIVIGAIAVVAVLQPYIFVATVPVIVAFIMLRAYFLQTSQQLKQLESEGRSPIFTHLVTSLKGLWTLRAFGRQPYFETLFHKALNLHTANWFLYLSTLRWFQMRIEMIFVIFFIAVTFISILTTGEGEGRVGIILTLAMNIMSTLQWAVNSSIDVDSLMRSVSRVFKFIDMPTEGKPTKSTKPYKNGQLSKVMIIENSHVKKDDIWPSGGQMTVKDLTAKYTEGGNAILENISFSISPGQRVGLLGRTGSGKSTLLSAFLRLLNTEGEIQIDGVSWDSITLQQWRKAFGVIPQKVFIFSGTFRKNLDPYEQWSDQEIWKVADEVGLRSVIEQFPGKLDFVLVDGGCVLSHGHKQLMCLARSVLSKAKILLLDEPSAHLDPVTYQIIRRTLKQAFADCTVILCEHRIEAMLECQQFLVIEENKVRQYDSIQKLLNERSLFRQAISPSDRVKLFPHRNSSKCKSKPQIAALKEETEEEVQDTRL

Structure (SMILES)	% Activation [1]	EC50 [1]	% Activation [2]	EC50 [2]
COCCN(C)c1ncc(-c2cc(C(=O)NS(C)(=O)=O)nc3c2c(C(C)C)nn3C2CCCCC2)cn1 [Compound 120, 1-cyclohexyl-N-(methanesulfonyl)-4-{2-[(2-methoxyethyl)(methyl)amino]pyrimidin-5-yl}-3-(propan-2-yl)-1H-pyrazolo[3,4-b]pyridine-6-carboxamide]	351.03%	348 nM	169.2%	554 nM
CC(C)c1nn(C2CCCCC2)c2nc(C(=O)NS(C)(=O)=O)cc(-c3ccc(N(C)C4CCOC4)nc3)c12 (stereo not shown) [Compound 122, 1-cyclohexyl-N-(methanesulfonyl)-4-{6-[methyl(oxolan-3-yl)amino]pyridin-3-yl}-3-(propan-2-yl)-1H-pyrazolo[3,4-b]pyridine-6-carboxamide]	405.9%	281 nM	184.53%	470 nM
CC(C)c1nn(C2CCCCC2)c2nc(C(=O)NS(C)(=O)=O)cc(-c3cnc(N(C)C4CCOCC4)nc3)c12 [Compound 123, 1-cyclohexyl-N-(methanesulfonyl)-4-{2-[methyl(oxan-4-yl)amino]pyrimidin-5-yl}-3-(propan-2-yl)-1H-pyrazolo[3,4-b]pyridine-6-carboxamide]	365.8%	239 nM	153.8%	428 nM
CC(C)c1nn(-c2cccc(C(F)(F)F)c2)c2nc(C(=O)NS(C)(=O)=O)cc(-c3ccc(N4CCC(C#N)CC4)nc3)c12 [Compound 124, 4-[6-(4-cyanopiperidin-1-yl)pyridin-3-yl]-N-(methanesulfonyl)-3-(propan-2-yl)-1-[3-(trifluoromethyl)phenyl]-1H-pyrazolo[3,4-b]pyridine-6-carboxamide]	447.23%	312 nM	288.1%	545 nM
CC(C)c1nn(-c2cccc(N(C)C)n2)c2nc(C(=O)NS(C)(=O)=O)cc(-c3ccc(N4CCOCC4)cc3)c12 [Compound 125, 1-[6-(dimethylamino)pyridin-2-yl]-N-(methanesulfonyl)-4-[4-(morpholin-4-yl)phenyl]-3-(propan-2-yl)-1H-pyrazolo[3,4-b]pyridine-6-carboxamide]	520.33%	463 nM	369.87%	988 nM
CC(C)c1nn(-c2cccc(OC(F)(F)F)c2)c2nc(C(=O)NS(C)(=O)=O)cc(-c3ccc(N4CCOCC4)cc3)c12 [Compound 126, N-(methanesulfonyl)-4-[4-(morpholin-4-yl)phenyl]-3-(propan-2-yl)-1-[3-(trifluoromethoxy)phenyl]-1H-pyrazolo[3,4-b]pyridine-6-carboxamide]	487.53%	322 nM	309.17%	597 nM
CC(C)c1nn(-c2ccc(F)c(F)c2)c2nc(C(=O)NS(C)(=O)=O)cc(-c3ccc(N4CCOCC4)cc3)c12 [Compound 127, 1-(3,4-difluorophenyl)-N-(methanesulfonyl)-4-[4-(morpholin-4-yl)phenyl]-3-(propan-2-yl)-1H-pyrazolo[3,4-b]pyridine-6-carboxamide]	449.1%	252 nM	301.45%	518 nM
COc1cc(F)cc(-n2nc(C)c3c(-c4c(F)cc(OC)cc4F)cc(C(=O)NS(C)(=O)=O)nc32)c1 [Compound 129, 4-(2,6-difluoro-4-methoxyphenyl)-1-(3-fluoro-5-methoxyphenyl)-N-(methanesulfonyl)-3-methyl-1H-pyrazolo[3,4-b]pyridine-6-carboxamide]	307.3%	790 nM	187.5%	1330 nM
CC(C)c1nn(-c2cc(F)cc(F)c2)c2nc(C(=O)NS(C)(=O)=O)cc(-c3ccc(N4CCC(C#N)CC4)cc3)c12 [Compound 130, 4-[4-(4-cyanopiperidin-1-yl)phenyl]-1-(3,5-difluorophenyl)-N-(methanesulfonyl)-3-(propan-2-yl)-1H-pyrazolo[3,4-b]pyridine-6-carboxamide]	496.9%	540 nM	318.25%	541 nM
CC(C)c1nn(-c2cccc(F)c2)c2nc(C(=O)NS(C)(=O)=O)cc(-c3ccc(N4CCC(C#N)CC4)cc3)c12 [Compound 131, 4-[4-(4-cyanopiperidin-1-yl)phenyl]-1-(3-fluorophenyl)-N-(methanesulfonyl)-3-(propan-2-yl)-1H-pyrazolo[3,4-b]pyridine-6-carboxamide]	465.1%	581 nM	314.35%	430 nM
COCCN(C)c1ccc(-c2cc(C(=O)NS(C)(=O)=O)nc3c2c(C(C)C)nn3-c2cccc(C(F)(F)F)c2)cc1 [Compound 132, N-(methanesulfonyl)-4-{4-[(2-methoxyethyl)(methyl)amino]phenyl}-3-(propan-2-yl)-1-[3-(trifluoromethyl)phenyl]-1H-pyrazolo[3,4-b]pyridine-6-carboxamide]	417.2%	882 nM	244%	1270 nM
CC(C)c1nn(-c2cccc(C(F)(F)F)c2)c2nc(C(=O)NS(C)(=O)=O)cc(-c3ccc(N(C)C4CCOCC4)nc3)c12 [Compound 133, N-(methanesulfonyl)-4-{6-[methyl(oxan-4-yl)amino]pyridin-3-yl}-3-(propan-2-yl)-1-[3-(trifluoromethyl)phenyl]-1H-pyrazolo[3,4-b]pyridine-6-carboxamide]	417.7%	336 nM	222.33%	413 nM
CC(C)c1nn(-c2ccc(F)cc2)c2nc(C(=O)NS(C)(=O)=O)cc(-c3cnc(N(C)C4CCOCC4)nc3)c12 [Compound 134, 1-(4-fluorophenyl)-N-(methanesulfonyl)-4-{2-[methyl(oxan-4-yl)amino]pyrimidin-5-yl}-3-(propan-2-yl)-1H-pyrazolo[3,4-b]pyridine-6-carboxamide]	435.8%	237 nM	229.87%	465 nM
CC(C)c1nn(-c2cccc(C(F)(F)F)c2)c2nc(C(=O)NS(C)(=O)=O)cc(-c3ccc(N4CCC(C#N)CC4)cc3)c12 [Compound 135, 4-[4-(4-cyanopiperidin-1-yl)phenyl]-N-(methanesulfonyl)-3-(propan-2-yl)-1-[3-(trifluoromethyl)phenyl]-1H-pyrazolo[3,4-b]pyridine-6-carboxamide]	512.9%	373 nM	299.63%	696 nM
CC1(c2nn(-c3ccccc3)c3nc(C(=O)NS(C)(=O)=O)cc(-c4ccc(N5CCOCC5)cc4)c23)CCC1 [Compound 137, N-(methanesulfonyl)-3-(1-methylcyclobutyl)-4-[4-(morpholin-4-yl)phenyl]-1-phenyl-1H-pyrazolo[3,4-b]pyridine-6-carboxamide]	339.7%	638 nM	131.8%	1170 nM
CCS(=O)(=O)NC(=O)c1cc(-c2ccc(N3CCOCC3)cc2)c2c(C3(C)CCC3)nn(-c3ccccc3)c2n1 [Compound 138, N-(ethanesulfonyl)-3-(1-methylcyclobutyl)-4-[4-(morpholin-4-yl)phenyl]-1-phenyl-1H-pyrazolo[3,4-b]pyridine-6-carboxamide]	433.83%	236 nM	252.9%	334 nM
